In patent publication US9340590B2 (priority 2011, dated 2016):
Read-outs that look alike come from different tables or passages of the source. Positions of bridges follow the written chain, without caps; N, C: chain ends. Non-standard residues stand in square brackets, D forms with d. Residues, ends and D or L forms follow the SMILES beside them. Lys(Me2) = CN(C)CCCC[C@H](N)C(=O)O

How the values were obtained:
Assay in all cases: cell-based
hNav1.7 [1] = target: T1, hNav1.7 (Homo sapiens, UniProt Q15858); settings: Nav1.7 Use IC50
T1 sequence (Q15858 whole entry, looked up): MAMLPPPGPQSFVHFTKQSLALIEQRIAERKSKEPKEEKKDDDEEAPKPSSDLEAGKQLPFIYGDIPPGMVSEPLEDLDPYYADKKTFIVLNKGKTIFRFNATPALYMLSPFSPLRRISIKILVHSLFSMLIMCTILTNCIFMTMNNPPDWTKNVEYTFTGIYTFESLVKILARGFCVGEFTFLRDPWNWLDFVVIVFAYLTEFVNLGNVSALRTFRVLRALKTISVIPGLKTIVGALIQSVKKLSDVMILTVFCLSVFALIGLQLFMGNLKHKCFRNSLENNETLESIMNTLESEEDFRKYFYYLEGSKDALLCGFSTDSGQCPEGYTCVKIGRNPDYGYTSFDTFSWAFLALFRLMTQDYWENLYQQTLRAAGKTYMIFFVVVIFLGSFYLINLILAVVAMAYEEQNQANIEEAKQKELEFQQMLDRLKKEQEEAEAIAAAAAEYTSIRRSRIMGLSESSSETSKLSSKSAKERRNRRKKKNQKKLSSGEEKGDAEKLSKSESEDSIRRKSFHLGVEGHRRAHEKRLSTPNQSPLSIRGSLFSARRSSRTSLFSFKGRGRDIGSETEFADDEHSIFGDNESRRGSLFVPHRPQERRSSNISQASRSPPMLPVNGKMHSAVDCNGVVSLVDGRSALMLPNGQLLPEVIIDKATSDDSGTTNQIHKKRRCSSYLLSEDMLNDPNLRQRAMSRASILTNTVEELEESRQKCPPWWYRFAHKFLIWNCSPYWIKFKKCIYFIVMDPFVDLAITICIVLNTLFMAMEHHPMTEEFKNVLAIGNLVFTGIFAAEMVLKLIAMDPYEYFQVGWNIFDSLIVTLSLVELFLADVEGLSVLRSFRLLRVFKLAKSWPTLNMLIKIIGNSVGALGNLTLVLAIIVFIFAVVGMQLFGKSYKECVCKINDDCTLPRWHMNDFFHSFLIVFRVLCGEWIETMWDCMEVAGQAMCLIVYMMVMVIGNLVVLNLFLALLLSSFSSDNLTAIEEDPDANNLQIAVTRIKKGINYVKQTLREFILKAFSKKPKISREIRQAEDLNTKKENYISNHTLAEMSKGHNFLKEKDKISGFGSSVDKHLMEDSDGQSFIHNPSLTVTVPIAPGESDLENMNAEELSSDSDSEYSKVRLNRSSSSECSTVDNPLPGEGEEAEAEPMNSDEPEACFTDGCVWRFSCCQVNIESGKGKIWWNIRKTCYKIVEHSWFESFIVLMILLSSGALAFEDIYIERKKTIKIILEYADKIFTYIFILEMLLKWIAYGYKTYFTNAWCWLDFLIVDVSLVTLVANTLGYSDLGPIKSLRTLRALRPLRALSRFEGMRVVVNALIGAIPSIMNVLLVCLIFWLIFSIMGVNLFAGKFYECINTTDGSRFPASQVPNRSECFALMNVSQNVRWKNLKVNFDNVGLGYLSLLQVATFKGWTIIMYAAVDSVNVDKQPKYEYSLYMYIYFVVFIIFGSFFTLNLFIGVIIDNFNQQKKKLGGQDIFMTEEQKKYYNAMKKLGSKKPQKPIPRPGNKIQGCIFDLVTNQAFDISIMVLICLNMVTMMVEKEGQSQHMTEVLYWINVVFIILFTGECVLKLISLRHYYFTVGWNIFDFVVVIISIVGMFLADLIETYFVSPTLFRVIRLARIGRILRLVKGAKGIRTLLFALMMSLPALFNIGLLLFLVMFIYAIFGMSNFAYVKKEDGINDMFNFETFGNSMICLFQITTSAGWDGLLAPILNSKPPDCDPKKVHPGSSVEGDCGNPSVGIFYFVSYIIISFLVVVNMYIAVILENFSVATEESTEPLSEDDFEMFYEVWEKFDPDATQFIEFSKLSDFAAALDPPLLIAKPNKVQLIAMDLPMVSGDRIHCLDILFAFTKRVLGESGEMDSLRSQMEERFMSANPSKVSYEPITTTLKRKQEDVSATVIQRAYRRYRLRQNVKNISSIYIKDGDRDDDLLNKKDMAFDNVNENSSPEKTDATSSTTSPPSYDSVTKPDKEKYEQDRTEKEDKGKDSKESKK

hNav1.5 [2] = target: T2, hNav1.5 (Homo sapiens, UniProt Q14524)
T2 sequence (Q14524 whole entry, looked up): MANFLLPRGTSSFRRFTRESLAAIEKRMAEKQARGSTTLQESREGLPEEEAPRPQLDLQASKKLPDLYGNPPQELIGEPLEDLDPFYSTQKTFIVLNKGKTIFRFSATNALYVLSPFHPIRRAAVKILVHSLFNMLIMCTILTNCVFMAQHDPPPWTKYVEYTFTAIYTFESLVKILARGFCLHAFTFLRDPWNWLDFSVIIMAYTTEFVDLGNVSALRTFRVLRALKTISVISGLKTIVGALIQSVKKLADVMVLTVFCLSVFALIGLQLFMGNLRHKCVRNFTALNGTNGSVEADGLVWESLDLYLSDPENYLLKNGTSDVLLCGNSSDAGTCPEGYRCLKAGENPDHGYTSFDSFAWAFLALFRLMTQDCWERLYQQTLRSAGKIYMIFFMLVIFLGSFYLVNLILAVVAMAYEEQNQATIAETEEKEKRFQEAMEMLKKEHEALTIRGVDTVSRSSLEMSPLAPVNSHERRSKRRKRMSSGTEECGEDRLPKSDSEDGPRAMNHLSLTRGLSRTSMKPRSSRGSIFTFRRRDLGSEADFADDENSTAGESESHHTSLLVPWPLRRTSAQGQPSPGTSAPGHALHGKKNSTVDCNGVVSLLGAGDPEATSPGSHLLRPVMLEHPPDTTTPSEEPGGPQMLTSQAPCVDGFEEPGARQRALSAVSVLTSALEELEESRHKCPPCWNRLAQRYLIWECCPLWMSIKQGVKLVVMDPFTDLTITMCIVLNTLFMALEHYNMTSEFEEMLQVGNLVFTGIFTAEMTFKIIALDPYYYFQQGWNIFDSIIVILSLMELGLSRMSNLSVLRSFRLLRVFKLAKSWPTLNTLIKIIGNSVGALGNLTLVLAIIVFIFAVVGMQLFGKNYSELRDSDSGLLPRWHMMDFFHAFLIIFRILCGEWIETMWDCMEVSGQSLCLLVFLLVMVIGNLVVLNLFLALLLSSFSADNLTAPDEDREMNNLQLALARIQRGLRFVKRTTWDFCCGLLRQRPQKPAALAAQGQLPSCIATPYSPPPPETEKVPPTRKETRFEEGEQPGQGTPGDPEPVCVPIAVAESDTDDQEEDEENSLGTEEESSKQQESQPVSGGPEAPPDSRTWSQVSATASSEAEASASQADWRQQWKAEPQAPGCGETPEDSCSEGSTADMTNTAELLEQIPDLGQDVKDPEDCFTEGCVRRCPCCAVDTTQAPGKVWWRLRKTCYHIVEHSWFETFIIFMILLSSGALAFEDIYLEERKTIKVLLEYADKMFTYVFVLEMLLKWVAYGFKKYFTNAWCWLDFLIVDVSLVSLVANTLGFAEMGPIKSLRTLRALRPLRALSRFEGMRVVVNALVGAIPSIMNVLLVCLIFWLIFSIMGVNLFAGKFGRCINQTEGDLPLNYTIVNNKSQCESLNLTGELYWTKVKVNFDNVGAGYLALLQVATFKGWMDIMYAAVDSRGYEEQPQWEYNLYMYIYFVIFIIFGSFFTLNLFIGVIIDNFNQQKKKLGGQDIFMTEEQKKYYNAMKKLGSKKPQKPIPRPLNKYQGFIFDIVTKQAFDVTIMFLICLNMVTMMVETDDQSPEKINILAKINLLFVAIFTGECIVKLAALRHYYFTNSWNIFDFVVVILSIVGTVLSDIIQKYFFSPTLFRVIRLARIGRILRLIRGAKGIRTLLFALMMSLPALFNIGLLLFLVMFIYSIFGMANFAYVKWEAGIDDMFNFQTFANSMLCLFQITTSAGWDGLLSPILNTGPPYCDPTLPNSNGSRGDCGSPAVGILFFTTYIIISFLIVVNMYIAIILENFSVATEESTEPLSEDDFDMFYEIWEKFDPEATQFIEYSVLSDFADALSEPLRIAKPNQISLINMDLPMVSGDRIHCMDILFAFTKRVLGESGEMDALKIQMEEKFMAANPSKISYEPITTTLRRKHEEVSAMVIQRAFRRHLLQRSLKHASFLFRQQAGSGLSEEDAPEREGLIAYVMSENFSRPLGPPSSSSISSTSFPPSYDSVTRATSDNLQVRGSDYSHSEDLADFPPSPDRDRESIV

hNav1.7 [3] = target: T1, hNav1.7; type: cell-based
hNav1.3 = hNav1.3 (Homo sapiens, UniProt Q9NY46); settings: IonWorks Quattro, read-out: IWQ Use Nav1.3
hNav1.5 [4] = target: T2, hNav1.5; remark: listed apart in the source
[5] = IonWorks Quattro, clamped to −110 mV, depolarized to −10 mV, 5 min after compound, n=2, read-out: IWQ Use Nav1.7
[6] = clamped to −110 mV, depolarized to −10 mV, 5 min after compound, n=2
[7] = IonWorks Quattro, clamped to −110 mV, depolarized to −10 mV, 5 min after compound, n=2, read-out: IWQ Use Nav1.5
[8] = IonWorks Quattro, use-dependent block, hNav1.5, read-out: IWQ Use Nav1.5
[9] = IonWorks Quattro, use-dependent block, hNav1.7, read-out: IWQ Use Nav1.7

Row | Structure (SMILES) | IC50 (hNav1.7 [1]) | IC50 (hNav1.5 [2]) | IC50 (hNav1.7 [3]; [5]) | IC50 (hNav1.3; [6]) | IC50 (hNav1.5 [4]; [7]) | IC50 (hNav1.7 [3]) | IC50 (hNav1.5 [4]; IWQ Use Nav1.5) | IC50 (hNav1.3; use-dependent block, hNav1.3) | IC50 (hNav1.5 [4]; [8]) | IC50 (hNav1.7 [3]; [9])
1 | CC[C@H](C)[C@@H]1NC(=O)[C@@H]2CSSC[C@@H]3NC(=O)[C@H](C(C)C)NC(=O)[C@H](CC(C)C)NC(=O)[C@H](CC(N)=O)NC(=O)[C@@H]4CCCN4C(=O)[C@H](CCCNC(=N)N)NC(=O)[C@H](CSSC[C@H](NC(=O)[C@@H](N)CC(=O)O)C(=O)N[C@@H](CC(C)C)C(=O)NCC(=O)N[C@@H](Cc4ccccc4)C(=O)N4CCC[C@H]4C(=O)N[C@@H](CCCNC(=N)N)C(=O)N[C@@H](CCCCN)C(=O)N2)NC(=O)[C@H](CSSC[C@@H](C(=O)N[C@@H](CCCCN)C(=O)N[C@@H](Cc2ccc(O)cc2)C(=O)N[C@H](C(=O)N[C@@H](Cc2ccccc2)C(N)=O)C(C)C)NC(=O)[C@H](Cc2c[nH]c4ccccc24)NC(=O)[C@H](CCCCN)NC(=O)[C@H](Cc2c[nH]cn2)NC(=O)[C@H]([C@@H](C)O)NC(=O)[C@H](CCCNC(=N)N)NC(=O)[C@H](CO)NC3=O)NC(=O)[C@H](CCCCN)NC(=O)[C@H](CC(=O)O)NC(=O)[C@H](CC(N)=O)NC(=O)[C@H](CC(=O)O)NC(=O)[C@@H]2CCCN2C1=O [SEQ ID NO: 283] (H-DCLGFPRKCIPDNDKCCRPNLVCSRTHKWCKYVF-NH2; disulfide 2-17, 9-23, 16-30) | 42 nM | 10000 nM | 790 nM | 760 nM | 10000 nM |  |  |  |  | 
2 | CC[C@H](C)[C@@H]1NC(=O)[C@@H]2CSSC[C@@H]3NC(=O)[C@H](C(C)C)NC(=O)[C@H](CC(C)C)NC(=O)[C@H](CC(N)=O)NC(=O)[C@@H]4CCCN4C(=O)[C@H](CCCNC(=N)N)NC(=O)[C@H](CSSC[C@H](NC(=O)[C@@H](N)CC(=O)O)C(=O)N[C@@H](CC(C)C)C(=O)NCC(=O)N[C@@H](Cc4ccccc4)C(=O)N[C@@H](Cc4ccc(O)cc4)C(=O)N[C@@H](CCCNC(=N)N)C(=O)N[C@@H](CCCCN)C(=O)N2)NC(=O)[C@H](CSSC[C@@H](C(=O)N[C@@H](CCCCN)C(=O)N[C@@H](Cc2ccc(O)cc2)C(=O)N[C@H](C(=O)N[C@@H](Cc2ccccc2)C(N)=O)C(C)C)NC(=O)[C@H](Cc2c[nH]c4ccccc24)NC(=O)[C@H](CCCCN)NC(=O)[C@H](Cc2cnc[nH]2)NC(=O)[C@H]([C@@H](C)O)NC(=O)[C@H](CCCNC(=N)N)NC(=O)[C@H](CO)NC3=O)NC(=O)[C@H](CCCCN)NC(=O)[C@H](CC(=O)O)NC(=O)[C@H](CC(N)=O)NC(=O)[C@H](CC(=O)O)NC(=O)[C@@H]2CCCN2C1=O [SEQ ID NO: 286] (H-DCLGFYRKCIPDNDKCCRPNLVCSRTHKWCKYVF-NH2; disulfide 2-17, 9-23, 16-30) | 69 nM | 10000 nM |  | 520 nM |  | 970 nM | 6380 nM |  |  | 
3 | CC[C@H](C)[C@@H]1NC(=O)[C@@H]2CSSC[C@@H]3NC(=O)[C@H](C(C)C)NC(=O)[C@H](CC(C)C)NC(=O)[C@H](CC(N)=O)NC(=O)[C@@H]4CCCN4C(=O)[C@H](CCCNC(=N)N)NC(=O)[C@H](CSSC[C@H](NC(=O)[C@@H](N)CC(=O)O)C(=O)N[C@@H](CC(C)C)C(=O)NCC(=O)N[C@@H](Cc4ccccc4)C(=O)N[C@@H](Cc4ccccn4)C(=O)N[C@@H](CCCNC(=N)N)C(=O)N[C@@H](CCCCN)C(=O)N2)NC(=O)[C@H](CSSC[C@@H](C(=O)N[C@@H](CCCCN)C(=O)N[C@@H](Cc2ccc(O)cc2)C(=O)N[C@H](C(=O)N[C@@H](Cc2ccccc2)C(N)=O)C(C)C)NC(=O)[C@H](Cc2c[nH]c4ccccc24)NC(=O)[C@H](CCCCN)NC(=O)[C@H](Cc2c[nH]cn2)NC(=O)[C@H]([C@@H](C)O)NC(=O)[C@H](CCCNC(=N)N)NC(=O)[C@H](CO)NC3=O)NC(=O)[C@H](CCCCN)NC(=O)[C@H](CC(=O)O)NC(=O)[C@H](CC(N)=O)NC(=O)[C@H](CC(=O)O)NC(=O)[C@@H]2CCCN2C1=O [SEQ ID NO: 294] | 42 nM | 10000 nM | 370 nM | 90 nM | 9110 nM |  |  |  |  | 
4 | CC[C@H](C)[C@@H]1NC(=O)[C@@H]2CSSC[C@@H]3NC(=O)[C@H](C(C)C)NC(=O)[C@H](CC(C)C)NC(=O)[C@H](CC(N)=O)NC(=O)[C@@H]4CCCN4C(=O)[C@H](CCCNC(=N)N)NC(=O)[C@H](CSSC[C@H](NC(=O)[C@@H](N)CC(=O)O)C(=O)N[C@@H](CC(C)C)C(=O)NCC(=O)N[C@@H](Cc4ccccc4)C(=O)N[C@@H](CCSC)C(=O)N[C@@H](CCC(=O)O)C(=O)N[C@@H](CCCCN)C(=O)N2)NC(=O)[C@H](CSSC[C@@H](C(=O)N[C@@H](CCCCN)C(=O)N[C@@H](Cc2ccc(O)cc2)C(=O)N[C@H](C(=O)N[C@@H](Cc2ccccc2)C(N)=O)C(C)C)NC(=O)[C@H](Cc2c[nH]c4ccccc24)NC(=O)[C@H](CCCCN)NC(=O)[C@H](Cc2cnc[nH]2)NC(=O)[C@H]([C@@H](C)O)NC(=O)[C@H](CCCNC(=N)N)NC(=O)[C@H](CO)NC3=O)NC(=O)[C@H](CCCCN)NC(=O)[C@H](CC(=O)O)NC(=O)[C@H](CC(N)=O)NC(=O)[C@H](CC(=O)O)NC(=O)[C@@H]2CCCN2C1=O [[Glu7]GpTx-1(1-34)] (H-DCLGFMEKCIPDNDKCCRPNLVCSRTHKWCKYVF-NH2; disulfide 2-17, 9-23, 16-30) | 98 nM | > 10000 nM |  |  |  | 880 nM |  | 1680 nM | 19100 nM | 
5 | CC[C@H](C)[C@@H]1NC(=O)[C@@H]2CSSC[C@@H]3NC(=O)[C@H](C(C)C)NC(=O)[C@H](CC(C)C)NC(=O)[C@H](CC(N)=O)NC(=O)[C@@H]4CCCN4C(=O)[C@H](CCCNC(=N)N)NC(=O)[C@H](CSSC[C@H](NC(=O)[C@@H](N)CC(=O)O)C(=O)N[C@@H](CC(C)C)C(=O)NCC(=O)N[C@@H](Cc4ccccc4)C(=O)N[C@@H](CCSC)C(=O)N[C@@H](CCCCN(C)C)C(=O)N[C@@H](CCCCN)C(=O)N2)NC(=O)[C@H](CSSC[C@@H](C(=O)N[C@@H](CCCCN)C(=O)N[C@@H](Cc2ccc(O)cc2)C(=O)N[C@H](C(=O)N[C@@H](Cc2ccccc2)C(N)=O)C(C)C)NC(=O)[C@H](Cc2c[nH]c4ccccc24)NC(=O)[C@H](CCCCN)NC(=O)[C@H](Cc2c[nH]cn2)NC(=O)[C@H]([C@@H](C)O)NC(=O)[C@H](CCCNC(=N)N)NC(=O)[C@H](CO)NC3=O)NC(=O)[C@H](CCCCN)NC(=O)[C@H](CC(=O)O)NC(=O)[C@H](CC(N)=O)NC(=O)[C@H](CC(=O)O)NC(=O)[C@@H]2CCCN2C1=O [[K(Me2)7]GpTx-1(1-34)] (H-DCLGFM[Lys(Me2)]KCIPDNDKCCRPNLVCSRTHKWCKYVF-NH2; disulfide 2-17, 9-23, 16-30) | 20 nM | > 10000 nM |  |  |  |  |  | 270 nM | 13300 nM | 820 nM
6 | CC[C@H](C)[C@@H]1NC(=O)[C@@H]2CSSC[C@@H]3NC(=O)[C@H](C(C)C)NC(=O)[C@H](CC(C)C)NC(=O)[C@H](CC(N)=O)NC(=O)[C@@H]4CCCN4C(=O)[C@H](CCCNC(=N)N)NC(=O)[C@H](CSSC[C@H](NC(=O)[C@@H](N)CC(=O)O)C(=O)N[C@@H](CC(C)C)C(=O)NCC(=O)N[C@@H](Cc4ccccc4)C(=O)N[C@@H](CCSC)C(=O)N[C@@H](CCCNC(=N)N)C(=O)N[C@@H](CCCCN(C)C)C(=O)N2)NC(=O)[C@H](CSSC[C@@H](C(=O)N[C@@H](CCCCN)C(=O)N[C@@H](Cc2ccc(O)cc2)C(=O)N[C@H](C(=O)N[C@@H](Cc2ccccc2)C(N)=O)C(C)C)NC(=O)[C@H](Cc2c[nH]c4ccccc24)NC(=O)[C@H](CCCCN)NC(=O)[C@H](Cc2c[nH]cn2)NC(=O)[C@H]([C@@H](C)O)NC(=O)[C@H](CCCNC(=N)N)NC(=O)[C@H](CO)NC3=O)NC(=O)[C@H](CCCCN)NC(=O)[C@H](CC(=O)O)NC(=O)[C@H](CC(N)=O)NC(=O)[C@H](CC(=O)O)NC(=O)[C@@H]2CCCN2C1=O [[K(Me2)8]GpTx-1(1-34)] | 4 nM | > 10000 nM |  |  |  |  |  | 180 nM | 9460 nM | 190 nM
7 | CC[C@H](C)[C@@H]1NC(=O)[C@@H]2CSSC[C@@H]3NC(=O)[C@H](C(C)C)NC(=O)[C@H](CC(C)C)NC(=O)[C@H](CC(N)=O)NC(=O)[C@@H]4CCCN4C(=O)[C@H](CCCNC(=N)N)NC(=O)[C@H](CSSC[C@H](NC(=O)[C@@H](N)CC(=O)O)C(=O)N[C@@H](CC(C)C)C(=O)NCC(=O)N[C@@H](Cc4ccccc4)C(=O)N[C@@H](CCSC)C(=O)N[C@@H](CCCNC(=NC)NC)C(=O)N[C@@H](CCCCN)C(=O)N2)NC(=O)[C@H](CSSC[C@@H](C(=O)N[C@@H](CCCCN)C(=O)N[C@@H](Cc2ccc(O)cc2)C(=O)N[C@H](C(=O)N[C@@H](Cc2ccccc2)C(N)=O)C(C)C)NC(=O)[C@H](Cc2c[nH]c4ccccc24)NC(=O)[C@H](CCCCN)NC(=O)[C@H](Cc2c[nH]cn2)NC(=O)[C@H]([C@@H](C)O)NC(=O)[C@H](CCCNC(=N)N)NC(=O)[C@H](CO)NC3=O)NC(=O)[C@H](CCCCN)NC(=O)[C@H](CC(=O)O)NC(=O)[C@H](CC(N)=O)NC(=O)[C@H](CC(=O)O)NC(=O)[C@@H]2CCCN2C1=O [[SDMA7]GpTx-1(1-34)] | 6 nM | 14000 nM |  |  |  |  |  | 120 nM | 10300 nM | 240 nM
